# Residues, ends and D or L forms follow the SMILES beside them.
# Key:
# Format in all cases: in vivo
# [1] = test system: rats with alloxan diabetes; assay: Course of alloxan diabetes in rats, treatment variant (Example 2)
# Method: After estimation of glucose concentration in the blood all the animals were divided at random into 2 groups. Then all the animals were exposed to single intravenous administration 1 ml of alloxan solution (“Spofa”) in dose 35 mg/kg. In 15 days control animals were administered once a day intraperitoneally with 0.3 ml 0.9% NaCl solution, rats of the main group were administered with LysGlu-Asp-Trp-NH2 in dose 3 μg (in 0.3 ml of 0.9% NaCl solution) per rat during 11 days.
# [2] = test system: patients with diabetes mellitus; assay: Clinical application in patients with diabetes mellitus (Example 8)
# Method: The investigation was carried out in 36 patients aged from 16 to 83 years (7 men, 29 women). In 23 patients there was diagnosed type 1 diabetes, in 13 patients—type 2 diabetes. The disease duration varied from 1 year to 30 years. 32 patients received insulin. The majority of the patients suffering diabetes mellitus entered the hospital decompensated. Blood glucose level in these patients on an empty stomach oscillated from […]; the glycosylated haemoglobin—from 7.8 to 12.7%. All the patients were prescribed a rigid diet. All the patients were stratified randomly into 2 groups, with respect to age, sex, duration and stage of the disease (Table 7). Alongside with standard method of treatment 16 patients were prescribed Lys-Glu-Asp-Trp-NH2 tetrapeptide in dose of 10 μg (in 1 ml of 0.9% NaCl solution) intramuscularly once a day for 10 days. 4 patients suffering type 2 diabetes mellitus were prescribed together with standard treatment course Lys-Glu-Asp-Trp-NH2 tetrapeptide in dose of 100 μg (1 tablet) twice a day before meals during 10 days. Patients of the control group were administered with 1 ml of 0.9% of NaCl solution as a placebo following the same scheme.
# [3] = test system: rats with alloxan diabetes; assay: Glucose tolerance test (sugar curve) in alloxan diabetes rats (Example 6); details: 44th day after course completion
# Method: The study was conducted on 13 male rats, enrolled in the previous tests (treatment variants—44 days after completion of tetrapeptide Lys-Glu-Asp-Trp-NH2 administration). 7 healthy rats with the same body weight constituted a separate group. All the animals were administered intravenously with 1 ml of 2% glucose solution, after that glucose concentration in their blood was estimated.
# [4] = test system: rats with alloxan diabetes; assay: Insulin effect on blood glucose level in alloxan diabetes rats after tetrapeptide (Example 7)
# Method: The study was conducted on 13 male rats, enrolled in the previous trial (treatment variant—28 days after completion of Lys-Glu-Asp-Trp-NH2 tetrapeptide administration). 8 healthy rats of the similar body weight constituted a separate group. All the animals were administered intravenously with insulin (0.3 units), and glucose concentration in their blood was estimated hereafter.
# [5] = test system: rats with alloxan diabetes; assay: Tetrapeptide in different doses on the course of alloxan diabetes in rats (Example 4); details: for Glucose concentration in blood, initial level: before alloxan; for Glucose concentration in blood, after tetrapeptide administration, day 1 / Glucose concentration in blood, after tetrapeptide administration, day 4 / Glucose concentration in blood, after tetrapeptide administration, day 7 / Glucose concentration in blood, after tetrapeptide administration, day 14 / Glucose concentration in blood, after tetrapeptide administration, day 21: 7 days; for Decrease of glucose level: dose 10 μg
# Method: The study was performed on 23 white mongrel male rats weighing on average […]. All the animals were subject to single intravenous administration of 1 ml of alloxan (“Spofa”) solution in dose of […].
# Then the animals were divided at random into 3 groups. Control animals were intraperitoneally administered with 0.3 ml of 0.9% NaCl solution once a day. Rats of the second and third group were administered with tetrapeptide Lys-Glu-Asp-Trp-NH2 in dose of 1 μg (in 0.1 ml of 0.9% NaCl solution) and 10 μg (in 1.0 ml of 0.9% NaCl solution) per rat during 7 days.
# [6] = test system: rats with alloxan diabetes; assay: Course of alloxan diabetes in rats, prophylaxis and treatment variant (Example 3)
# Method: The experiment was carried out on 15 white mongrel male rats with the average body weight 375±35 g. The animals were divided randomly into 2 groups. Control animals were administered once a day intravenously with 0.3 ml of 0.9% NaCl solution, while the main group animals were administered with LysGlu-Asp-Trp-NH2 tetrapeptide in dose of 3 μg (in 0.3 ml of 0.9% NaCl solution) per rat during 7 days. After that all the animals were subject to single intravenous administration of 1 ml of alloxan solution (“Spofa”) in dose 35 mg/kg. Lys-Glu-Asp-Trp-NH2 tetrapeptide had been administered during 3 days following alloxan administration. After that […] were subject to the second Lys-Glu-Asp-Trp-NH2 tetrapeptide course from 18 day till day 28 (total 11 days) in the same dose.
# [7] = test system: rats with alloxan diabetes; assay: Insulin level in blood of rats with alloxan diabetes (Example 5)
# Method: The experiment was held on 18 white mongrel male rats weighing on average 375±35 g. After the estimation of the blood glucose level all the animals were divided at random into 2 groups. Then all the animals were subjected to single intravenous injection with 1 ml of alloxan solution (“Spofa”) in dose of 35 mg/kg. 15 days later control animals were daily intraperitonealy administered with 0.3 ml of 0.9% NaCl solution, rats of the main group—with tetrapeptide Lys-Glu-Asp-Trp-NH2 in dose of 3 μg (in 0.3 ml of 0.9% NaCl) per rat during 11 days.
# [8] = 3 μg per rat i.p. daily, 11 days
# [9] = before alloxan and before treatment
# [10] = 16 insulin-treated patients, 10 μg i.m. once a day, 10 days
smiles,measurement,setting,value
"NCCCC[C@H](N)C(=O)N[C@@H](CCC(=O)O)C(=O)N[C@@H](CC(=O)O)C(=O)N[C@@H](Cc1c[nH]c2ccccc12)C(N)=O [Tetrapeptide Lys-Glu-Asp-Trp-NH2, lysyl-glutamyl-aspartyl-tryptophane amid] (H-KEDW-NH2)","Glucose concentration in the blood, 8 days since the onset of tetrapeptide administration",[1]; [8],254.5 ± 16.2 mg %
same,"Glucose concentration in the blood, upon completion of peptide administration, day 1",[1]; [8],222.5 ± 10.3 mg %
same,"Glucose concentration in the blood, upon completion of peptide administration, day 9",[1]; [8],183.9 ± 10.5 mg %
same,"Glucose concentration in the blood, upon completion of peptide administration, day 18",[1]; [8],236.7 ± 10.3 mg %
same,"Glucose concentration in the blood, upon completion of peptide administration, day 28",[1]; [8],221.5 ± 11.2 mg %
same,"Glucose concentration in the blood, upon completion of peptide administration, day 44",[1]; [8],210.8 ± 9.3 mg %
same,"Glucose concentration in the blood, upon completion of peptide administration, day 58",[1]; [8],198.9 mg %
same,"Glucose concentration in the blood, initial level",[1]; [9],81.1 ± 3.8 mg %
same,"Glucose concentration in the blood, 15 days after alloxan administration",[1]; before start of tetrapeptide,333.6 ± 12.4 mg %
same,Lethality decrease,"[1]; vs control, alloxan diabetes animals",two-fold lethality decrease
same,Decrease of the blood glucose level throughout the whole study,"[1]; vs control, range 30-47.7%",38.4%
same,"Reduction of the insulin daily dose, on average",[2]; 8 patients out of 16 treated with insulin,8 units
same,Decreased insulin dose necessary to achieve compensation (number of patients),[2]; [10],8
same,Increased insulin dose necessary to achieve compensation (number of patients),[2]; [10],2
same,The same insulin dose necessary to achieve compensation (number of patients),[2]; [10],6
same,Decrease of daily insulin dose as compared to the initial level,[2]; Patient K.,26 units
same,Coagulogram indices,"[2]; Patient K., at discharge",pronounced improvement in coagulogram indices
same,Blood glucose level on an empty stomach at discharge,"[2]; Patient K., type 2, 10 μg i.m. 10 days, 18th day, 10 μmol/l on admission",5.9 mM
same,Daily dose of insulin at discharge,"[2]; Patient K., 82 units on admission",56 units
same,Blood glucose level after completion of the treatment course,[2]; Patient L.,remained within the norm
same,Dose of diabeton,[2]; Patient L.,reduced two-fold
same,Glucose level on an empty stomach on the second day,"[2]; Patient L., type 2, oral 100 μg twice a day with 2 diabeton tablets, 11 μmol/l on admission",6 mM
same,Decrease of daily insulin dose as compared to the initial level,[2]; Patient M.,8 units
same,Daily norm of insulin at discharge,"[2]; Patient M., 40 units on admission",32 units
same,Compensation in patients treated with oral anti-diabetic medicine,[2]; tetrapeptide in tablets,full compensation
same,Reduction of the dose of insulin,"[2]; tetrapeptide in tablets, 100 μg twice a day, 10 days",25 units
same,Reduction of dose of oral anti-diabetic preparations,"[2]; tetrapeptide in tablets, patients on oral anti-diabetic medicine",reduced practically two-fold
same,"Glucose tolerance test, 5 min after glucose administration",[3],301.2 ± 10.5
same,"Glucose tolerance test, 30 min after glucose administration",[3],205.1 ± 11.8
same,"Glucose tolerance test, 60 min after glucose administration",[3],201.5 ± 13.2
same,"Glucose tolerance test, 120 min after glucose administration",[3],164.2 ± 12.8
same,"Glucose tolerance test, initial level",[3]; before i.v. 1 ml of 2% glucose,210.8 ± 9.3
same,"Glucose concentration in blood, initial level","[4]; 28th day after course completion, before insulin",221.5 ± 11.2 mg %
same,"Glucose concentration in blood, 30 minutes after insulin administration","[4]; 28th day after course completion, insulin 0.3 units i.v.",123.6 ± 8.3 mg %
same,Decrease of the glucose level after insulin administration as compared to the control group,[4]; alloxan diabetes animals,nearly two-fold decrease of the glucose level
same,"Glucose concentration in blood, after alloxan administration, day 7",[5]; 1 mkg group,245.6 ± 12.3 mg %
same,"Glucose concentration in blood, after alloxan administration, day 14",[5]; 1 mkg group,261.7 ± 12.3 mg %
same,"Glucose concentration in blood, initial level",[5]; 1 mkg group,80.6 ± 2.8 mg %
same,"Glucose concentration in blood, after tetrapeptide administration, day 1",[5]; 1 mkg per rat,228.3 ± 10.7 mg %
same,"Glucose concentration in blood, after tetrapeptide administration, day 4",[5]; 1 mkg per rat,244.4 ± 12.2 mg %
same,"Glucose concentration in blood, after tetrapeptide administration, day 7",[5]; 1 mkg per rat,269.4 ± 8.6 mg %
same,"Glucose concentration in blood, after tetrapeptide administration, day 14",[5]; 1 mkg per rat,268.8 ± 12.4 mg %
same,"Glucose concentration in blood, after tetrapeptide administration, day 21",[5]; 1 mkg per rat,272.5 ± 9.9 mg %
same,"Glucose concentration in blood, after alloxan administration, day 7",[5]; 10 mkg group,247.2 ± 14.0 mg %
same,"Glucose concentration in blood, after alloxan administration, day 14",[5]; 10 mkg group,252.2 ± 7.9 mg %
same,"Glucose concentration in blood, initial level",[5]; 10 mkg group,83.9 ± 3.4 mg %
same,"Glucose concentration in blood, after tetrapeptide administration, day 1",[5]; 10 mkg per rat,193.3 ± 6.7 mg %
same,"Glucose concentration in blood, after tetrapeptide administration, day 4",[5]; 10 mkg per rat,212.2 ± 7.3 mg %
same,"Glucose concentration in blood, after tetrapeptide administration, day 7",[5]; 10 mkg per rat,205.6 ± 8.4 mg %
same,"Glucose concentration in blood, after tetrapeptide administration, day 14",[5]; 10 mkg per rat,240.0 ± 7.9 mg %
same,"Glucose concentration in blood, after tetrapeptide administration, day 21",[5]; 10 mkg per rat,248.3 ± 13.5 mg %
same,Decrease of glucose level,[5]; day 1,30%
same,Decrease of glucose level,[5]; day 7,26%
same,"Glucose concentration in blood, after alloxan administration, day 28",[6]; 2nd course (from 18th till 28th day),77.3 ± 1.3 mg %
same,Blood glucose level after the second course,"[6]; 28th, 33rd, 40th day",complete normalisation of the blood glucose level
same,"Glucose concentration in blood, after alloxan administration, day 5",[6]; after 1st course,247.3 ± 17.2 mg %
same,"Glucose concentration in blood, after alloxan administration, day 14",[6]; after 1st course,261.5 ± 39.5 mg %
same,"Glucose concentration in blood, after alloxan administration, day 33",[6]; after 2nd course,90.7 ± 5.2 mg %
same,"Glucose concentration in blood, after alloxan administration, day 40",[6]; after 2nd course,107.7 ± 6.4 mg %
same,"Glucose concentration in blood, initial level",[6]; before treatment,76.8 ± 1.1 mg %
same,"Glucose concentration in blood, after alloxan administration, day 21",[6]; during 2nd course (from 18th till 28th day),159.0 ± 32.6 mg %
same,"Glucose concentration in blood, 7 days from the onset of tetrapeptide administration (1 course)","[6]; healthy rats before alloxan, 3 μg per rat daily",94.0 ± 0.8 mg %
same,Effect on blood glucose level of healthy animals,"[6]; healthy rats, 7 days, before alloxan",did not lead to the decrease of blood glucose level
same,"Insulin content in blood, 8 days since the onset of tetrapeptide administration",[7]; [8],3.1 ± 1.1 mkIU/ml
same,"Insulin content in blood, after the completion of tetrapeptide administration, day 1",[7]; [8],3.6 ± 0.7 mkIU/ml
same,"Insulin content in blood, after the completion of tetrapeptide administration, day 9",[7]; [8],3.2 ± 0.5 mkIU/ml
same,"Insulin content in blood, after the completion of tetrapeptide administration, day 18",[7]; [8],4.3 ± 0.5 mkIU/ml
same,"Insulin content in blood, after the completion of tetrapeptide administration, day 28",[7]; [8],4.1 ± 0.6 mkIU/ml
same,"Insulin content in blood, after the completion of tetrapeptide administration, day 44",[7]; [8],3.9 ± 1.1 mkIU/ml
same,Insulin content in the blood relative to control group,"[7]; 8 days of administration, higher than control",3.9 fold
same,Amount of insulin in the blood at following estimations,"[7]; after course completion, no insulin in controls",13-18%
same,"Insulin content in blood, initial level",[7]; [9],23.8 ± 2.8 mkIU/ml
same,"Insulin content in blood, 15 days after alloxan administration",[7]; before start of tetrapeptide,1.5 ± 0.4 mkIU/ml

# Source: patent US20070142298A1, “Tetrapeptide regulating blood glucose level in diabetes mellitus” (SANKT-PETERBURGSKAYA OBSCHESTVENNAYA ORGANIZATSIYA …, priority 2003, published 2007)
